This note sets out measurements from the NIST ThermoML archive (doi:10.1021/je800218g).

Numbers after ± are expanded uncertainties.

This data set in a line: activity coefficient (dimensionless); of the first substance listed, at infinite dilution; xn = mol fraction of the nth substance listed. The conditions noted are these: Liquid, Chromatography, x1 = 0.

As for `Cc1ccc(C)cc1` [1,4-dimethylbenzene] + CCn1cc[n+](C)c1.F[B-](F)(F)F, the activity coefficient by setting is: (303.15 K) 5.41 ± 0.57; (313.15 K) 5.3 ± 0.56; (323.15 K) 5.14 ± 0.54; (333.15 K) 5.03 ± 0.53; (343.15 K) 4.96 ± 0.52; (353.15 K) 4.88 ± 0.51. Also, the activity coefficient (363.15 K) is 4.76 ± 0.5.

Turning to `ClCCl` [dichloromethane] + CCn1cc[n+](C)c1.F[B-](F)(F)F, the activity coefficient runs as follows: (303.15 K) 1.12 ± 0.12; (313.15 K) 1.16 ± 0.12; (323.15 K) 1.21 ± 0.12; (333.15 K) 1.25 ± 0.13; (343.15 K) 1.32 ± 0.14; (353.15 K) 1.36 ± 0.14. Also, the activity coefficient (363.15 K) is 1.39 ± 0.14.

In the case of `CCCCCCCCC` [nonane] + CCn1cc[n+](C)c1.F[B-](F)(F)F, the activity coefficient reads like this: (303.15 K) 319 ± 34; (313.15 K) 294 ± 31; (323.15 K) 272 ± 29; (333.15 K) 254 ± 27; (343.15 K) 248 ± 26; (353.15 K) 235 ± 25. Moreover, the activity coefficient (363.15 K) was 224 ± 24.

As for `C1CCCCC1` [cyclohexane] + CCn1cc[n+](C)c1.F[B-](F)(F)F, the activity coefficient came out at 70.5 ± 7.4 (303.15 K); 60.9 ± 6.4 (313.15 K); 49.7 ± 5.2 (323.15 K); 39.6 ± 4.2 (333.15 K); 31.2 ± 3.3 (343.15 K); 27.5 ± 2.9 (353.15 K). For the same molecule, where the note is “363.15 K”, the activity coefficient stood at 21.9 ± 2.3.

On to `Cc1ccccc1C` [1,2-dimethylbenzene] + CCn1cc[n+](C)c1.F[B-](F)(F)F, for which the activity coefficient was determined as 4.73 ± 0.5 (303.15 K); 4.69 ± 0.49 (313.15 K); 4.64 ± 0.49 (323.15 K); 4.58 ± 0.48 (333.15 K); 4.5 ± 0.47 (343.15 K); 4.41 ± 0.46 (353.15 K). The activity coefficient (363.15 K) was 4.34 ± 0.46.

Consider `Cc1ccccc1` [toluene] + CCn1cc[n+](C)c1.F[B-](F)(F)F, for which the activity coefficient (303.15 K) was determined as 3.68 ± 0.39; the activity coefficient (313.15 K) is 3.66 ± 0.38; the activity coefficient (323.15 K) was found to be 3.62 ± 0.38; the activity coefficient (333.15 K) turned out to be 3.56 ± 0.37; the activity coefficient (343.15 K) is 3.52 ± 0.37; the activity coefficient (353.15 K) is 3.48 ± 0.37. The activity coefficient (363.15 K) was found to be 3.4 ± 0.36.

Turning to `CCCCCCCC` [octane] + CCn1cc[n+](C)c1.F[B-](F)(F)F, the activity coefficient stood at 216 ± 23 (303.15 K); 201 ± 21 (313.15 K); 187 ± 20 (323.15 K); 173 ± 18 (333.15 K); 158 ± 17 (343.15 K); 149 ± 16 (353.15 K). Also, the activity coefficient (363.15 K) came to 140 ± 15.

As for `ClC(Cl)(Cl)Cl` [tetrachloromethane] + CCn1cc[n+](C)c1.F[B-](F)(F)F, the activity coefficient turned out to be 4.31 ± 0.45 (303.15 K); 4.41 ± 0.46 (313.15 K); 4.56 ± 0.48 (323.15 K); 4.66 ± 0.49 (333.15 K); 4.8 ± 0.5 (343.15 K); 4.89 ± 0.51 (353.15 K). The activity coefficient (363.15 K) came to 4.98 ± 0.52.

Turning to `CCCCCC` [hexane] + CCn1cc[n+](C)c1.F[B-](F)(F)F, the activity coefficient is 101 ± 11 (303.15 K); 95.3 ± 10 (313.15 K); 90.6 ± 9.5 (323.15 K); 85.3 ± 9 (333.15 K); 77.4 ± 8.2 (343.15 K); 74.5 ± 7.8 (353.15 K). For the setting “363.15 K”, the activity coefficient was 69.5 ± 7.3.

For the molecule `ClC(Cl)Cl` [trichloromethane] + CCn1cc[n+](C)c1.F[B-](F)(F)F, the activity coefficient runs as follows: (303.15 K) 1.36 ± 0.14; (313.15 K) 1.38 ± 0.14; (323.15 K) 1.39 ± 0.14; (333.15 K) 1.41 ± 0.15; (343.15 K) 1.43 ± 0.15; (353.15 K) 1.46 ± 0.15. The activity coefficient (363.15 K) stood at 1.5 ± 0.15.

As to `CCCCC` [pentane] + CCn1cc[n+](C)c1.F[B-](F)(F)F, the activity coefficient (303.15 K) was determined as 68.8 ± 7.2; the activity coefficient (313.15 K) amounted to 62.5 ± 6.6; the activity coefficient (323.15 K) came out at 57.6 ± 6.1; the activity coefficient (333.15 K) was 53.9 ± 5.7; the activity coefficient (343.15 K) stood at 49 ± 5.2; the activity coefficient (353.15 K) is 45.7 ± 4.8. Further, the activity coefficient (363.15 K) stood at 42.1 ± 4.4.

As to `CC(C)CC(C)(C)C` [2,2,4-trimethylpentane] + CCn1cc[n+](C)c1.F[B-](F)(F)F, the activity coefficient reads like this: (303.15 K) 158 ± 17; (313.15 K) 143 ± 15; (323.15 K) 124 ± 13; (333.15 K) 112 ± 12; (343.15 K) 101 ± 11; (353.15 K) 85.8 ± 9. Moreover, the activity coefficient (363.15 K) was 75.3 ± 7.9.

Turning to `CC#N` [acetonitrile] + CCn1cc[n+](C)c1.F[B-](F)(F)F, the activity coefficient by setting is: (303.15 K) 0.892 ± 0.091; (313.15 K) 0.875 ± 0.09; (323.15 K) 0.853 ± 0.087; (333.15 K) 0.832 ± 0.085; (343.15 K) 0.814 ± 0.084; (353.15 K) 0.792 ± 0.082. Moreover, the activity coefficient (363.15 K) was 0.769 ± 0.079.

On to `CCCCCCC` [heptane] + CCn1cc[n+](C)c1.F[B-](F)(F)F, for which the activity coefficient (303.15 K) amounted to 154 ± 16; the activity coefficient (313.15 K) was 138 ± 15; the activity coefficient (323.15 K) came to 124 ± 13; the activity coefficient (333.15 K) is 111 ± 12; the activity coefficient (343.15 K) came to 104 ± 11; the activity coefficient (353.15 K) turned out to be 96 ± 10. Also, the activity coefficient (363.15 K) was 90.4 ± 9.5.

With `C=Cc1ccccc1` [styrene] + CCn1cc[n+](C)c1.F[B-](F)(F)F, the activity coefficient came to 3.38 ± 0.35 (303.15 K); 3.44 ± 0.36 (313.15 K); 3.49 ± 0.37 (323.15 K); 3.56 ± 0.37 (333.15 K); 3.62 ± 0.38 (343.15 K); 3.65 ± 0.38 (353.15 K). Moreover, the activity coefficient (363.15 K) is 3.73 ± 0.39.

As to `C1CCOC1` [tetrahydrofuran] + CCn1cc[n+](C)c1.F[B-](F)(F)F, the activity coefficient (303.15 K) was determined as 1.87 ± 0.2; the activity coefficient (313.15 K) worked out at 1.85 ± 0.19; the activity coefficient (323.15 K) is 1.83 ± 0.19; the activity coefficient (333.15 K) turned out to be 1.82 ± 0.19; the activity coefficient (343.15 K) came to 1.8 ± 0.19; the activity coefficient (353.15 K) came to 1.77 ± 0.18. In addition, where the note is “363.15 K”, the activity coefficient is 1.74 ± 0.18.

Consider `C1COCCO1` [1,4-dioxane] + CCn1cc[n+](C)c1.F[B-](F)(F)F, for which the activity coefficient is, setting by setting: (303.15 K) 1.35 ± 0.14; (313.15 K) 1.4 ± 0.14; (323.15 K) 1.42 ± 0.15; (333.15 K) 1.44 ± 0.15; (343.15 K) 1.47 ± 0.15; (353.15 K) 1.49 ± 0.15. In addition, the activity coefficient (363.15 K) stood at 1.51 ± 0.16.

Regarding `CC1CCCCC1` [methylcyclohexane] + CCn1cc[n+](C)c1.F[B-](F)(F)F, the activity coefficient worked out at 93 ± 9.8 (303.15 K); 79.7 ± 8.4 (313.15 K); 67.7 ± 7.1 (323.15 K); 58.9 ± 6.2 (333.15 K); 51.4 ± 5.4 (343.15 K); 43.3 ± 4.6 (353.15 K). Further, the activity coefficient (363.15 K) came out at 32.3 ± 3.4.

Consider `Cc1cccc(C)c1` [1,3-dimethylbenzene] + CCn1cc[n+](C)c1.F[B-](F)(F)F, for which the activity coefficient was found to be 5.88 ± 0.62 (303.15 K); 5.71 ± 0.6 (313.15 K); 5.57 ± 0.59 (323.15 K); 5.32 ± 0.56 (333.15 K); 5.17 ± 0.54 (343.15 K); 4.98 ± 0.52 (353.15 K). Also, for the setting “363.15 K”, the activity coefficient amounted to 4.83 ± 0.51.

On to `c1ccccc1` [benzene] + CCn1cc[n+](C)c1.F[B-](F)(F)F, for which the activity coefficient is, setting by setting: (303.15 K) 2.13 ± 0.22; (313.15 K) 2.11 ± 0.22; (323.15 K) 2.09 ± 0.22; (333.15 K) 2.05 ± 0.21; (343.15 K) 2.02 ± 0.21; (353.15 K) 1.99 ± 0.21. Moreover, the activity coefficient (363.15 K) is 1.96 ± 0.21.

In the case of `C1=CCCCC1` [cyclohexene] + CCn1cc[n+](C)c1.F[B-](F)(F)F, the activity coefficient was 21.8 ± 2.3 (303.15 K); 19.6 ± 2.1 (313.15 K); 16.6 ± 1.8 (323.15 K); 14.4 ± 1.5 (333.15 K); 12.8 ± 1.3 (343.15 K); 10.5 ± 1.1 (353.15 K). Also, the activity coefficient (363.15 K) was 9.13 ± 0.96.

Regarding `CCOC(C)=O` [ethyl acetate] + CCn1cc[n+](C)c1.F[B-](F)(F)F, the activity coefficient by setting is: (303.15 K) 2.94 ± 0.31; (313.15 K) 2.92 ± 0.31; (323.15 K) 2.89 ± 0.3; (333.15 K) 2.87 ± 0.3; (343.15 K) 2.83 ± 0.3; (353.15 K) 2.79 ± 0.29. Moreover, where the note is “363.15 K”, the activity coefficient came to 2.75 ± 0.29.

In the case of `CC(C)=O` [acetone] + CCn1cc[n+](C)c1.F[B-](F)(F)F, the activity coefficient by setting is: (303.15 K) 1.23 ± 0.13; (313.15 K) 1.26 ± 0.13; (323.15 K) 1.27 ± 0.13; (333.15 K) 1.29 ± 0.13; (343.15 K) 1.31 ± 0.14; (353.15 K) 1.33 ± 0.14. Besides, the activity coefficient (363.15 K) was 1.33 ± 0.14.

For `CCCCCCCCCC` [decane] + CCn1cc[n+](C)c1.F[B-](F)(F)F, the activity coefficient (303.15 K) came to 1110 ± 120; the activity coefficient (313.15 K) stood at 984 ± 100; the activity coefficient (323.15 K) came out at 861 ± 91; the activity coefficient (333.15 K) was determined as 751 ± 79; the activity coefficient (343.15 K) is 643 ± 68; the activity coefficient (353.15 K) came to 545 ± 58. For the same molecule, the activity coefficient (363.15 K) was found to be 456 ± 48.

For `CCc1ccccc1` [ethylbenzene] + CCn1cc[n+](C)c1.F[B-](F)(F)F, the activity coefficient reads like this: (303.15 K) 6.49 ± 0.68; (313.15 K) 6.3 ± 0.66; (323.15 K) 6.11 ± 0.64; (333.15 K) 5.89 ± 0.62; (343.15 K) 5.58 ± 0.59; (353.15 K) 5.44 ± 0.57. In addition, where the note is “363.15 K”, the activity coefficient stood at 5.31 ± 0.56.
